# Assay results published in ChEMBL document CHEMBL1145861, “Selective protein tyrosine phosphatase 1B inhibitors: targeting the second phosphotyrosine binding site with non-carboxylic acid-containing ligands” (J Med Chem, 2003).
# What was measured:
# [1] = target: Tyrosine-protein phosphatase non-receptor type 2 (Homo sapiens, UniProt P17706); assay: Inhibitory constant against T cell protein tyrosine phosphatase; format: single protein
# [2] = target: T1, Tyrosine-protein phosphatase non-receptor type 1 (Homo sapiens, UniProt P18031); assay: Inhibitory activity against Protein-tyrosine phosphatase 1B (PTP 1B) was determined
# T1 sequence (P18031 whole entry): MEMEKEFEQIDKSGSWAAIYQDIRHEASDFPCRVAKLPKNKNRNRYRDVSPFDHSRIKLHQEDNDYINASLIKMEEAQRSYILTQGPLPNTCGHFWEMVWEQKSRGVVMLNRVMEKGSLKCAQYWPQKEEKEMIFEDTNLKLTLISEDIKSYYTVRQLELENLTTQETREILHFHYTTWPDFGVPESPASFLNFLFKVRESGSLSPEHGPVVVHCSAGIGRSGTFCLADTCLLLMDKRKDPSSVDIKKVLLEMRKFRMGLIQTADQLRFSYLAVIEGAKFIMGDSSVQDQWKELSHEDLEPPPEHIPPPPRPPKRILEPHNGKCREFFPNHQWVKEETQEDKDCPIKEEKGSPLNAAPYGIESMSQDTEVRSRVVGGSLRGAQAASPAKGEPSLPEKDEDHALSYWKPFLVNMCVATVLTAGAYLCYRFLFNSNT
# [3] = target: Protein phosphatase 3 catalytic subunit alpha (Homo sapiens, UniProt Q08209); assay: Inhibitory activity against (calcineurin) was determined
# [4] = target: T2, M-phase inducer phosphatase 3 (Homo sapiens, UniProt P30307); assay: Inhibitory activity against Cell division cycle 25 degree C was determined
# T2 sequence (P30307 whole entry): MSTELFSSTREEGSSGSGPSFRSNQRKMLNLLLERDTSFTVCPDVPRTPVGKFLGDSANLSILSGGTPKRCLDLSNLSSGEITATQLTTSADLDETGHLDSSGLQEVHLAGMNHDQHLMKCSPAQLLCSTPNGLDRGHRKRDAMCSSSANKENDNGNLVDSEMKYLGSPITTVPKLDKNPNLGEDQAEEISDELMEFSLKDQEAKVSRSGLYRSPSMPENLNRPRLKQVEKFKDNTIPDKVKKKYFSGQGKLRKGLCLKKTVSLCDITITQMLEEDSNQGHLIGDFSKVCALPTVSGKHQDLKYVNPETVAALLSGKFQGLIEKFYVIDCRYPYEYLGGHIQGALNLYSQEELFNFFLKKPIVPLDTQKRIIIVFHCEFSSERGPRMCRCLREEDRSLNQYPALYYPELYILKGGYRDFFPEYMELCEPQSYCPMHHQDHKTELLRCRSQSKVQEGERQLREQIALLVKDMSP
# [5] = target: T3, Receptor-type tyrosine-protein phosphatase C (Homo sapiens, UniProt P08575); assay: Inhibitory activity against CD45 tyrosine phosphatase was determined
# T3 sequence (P08575 whole entry): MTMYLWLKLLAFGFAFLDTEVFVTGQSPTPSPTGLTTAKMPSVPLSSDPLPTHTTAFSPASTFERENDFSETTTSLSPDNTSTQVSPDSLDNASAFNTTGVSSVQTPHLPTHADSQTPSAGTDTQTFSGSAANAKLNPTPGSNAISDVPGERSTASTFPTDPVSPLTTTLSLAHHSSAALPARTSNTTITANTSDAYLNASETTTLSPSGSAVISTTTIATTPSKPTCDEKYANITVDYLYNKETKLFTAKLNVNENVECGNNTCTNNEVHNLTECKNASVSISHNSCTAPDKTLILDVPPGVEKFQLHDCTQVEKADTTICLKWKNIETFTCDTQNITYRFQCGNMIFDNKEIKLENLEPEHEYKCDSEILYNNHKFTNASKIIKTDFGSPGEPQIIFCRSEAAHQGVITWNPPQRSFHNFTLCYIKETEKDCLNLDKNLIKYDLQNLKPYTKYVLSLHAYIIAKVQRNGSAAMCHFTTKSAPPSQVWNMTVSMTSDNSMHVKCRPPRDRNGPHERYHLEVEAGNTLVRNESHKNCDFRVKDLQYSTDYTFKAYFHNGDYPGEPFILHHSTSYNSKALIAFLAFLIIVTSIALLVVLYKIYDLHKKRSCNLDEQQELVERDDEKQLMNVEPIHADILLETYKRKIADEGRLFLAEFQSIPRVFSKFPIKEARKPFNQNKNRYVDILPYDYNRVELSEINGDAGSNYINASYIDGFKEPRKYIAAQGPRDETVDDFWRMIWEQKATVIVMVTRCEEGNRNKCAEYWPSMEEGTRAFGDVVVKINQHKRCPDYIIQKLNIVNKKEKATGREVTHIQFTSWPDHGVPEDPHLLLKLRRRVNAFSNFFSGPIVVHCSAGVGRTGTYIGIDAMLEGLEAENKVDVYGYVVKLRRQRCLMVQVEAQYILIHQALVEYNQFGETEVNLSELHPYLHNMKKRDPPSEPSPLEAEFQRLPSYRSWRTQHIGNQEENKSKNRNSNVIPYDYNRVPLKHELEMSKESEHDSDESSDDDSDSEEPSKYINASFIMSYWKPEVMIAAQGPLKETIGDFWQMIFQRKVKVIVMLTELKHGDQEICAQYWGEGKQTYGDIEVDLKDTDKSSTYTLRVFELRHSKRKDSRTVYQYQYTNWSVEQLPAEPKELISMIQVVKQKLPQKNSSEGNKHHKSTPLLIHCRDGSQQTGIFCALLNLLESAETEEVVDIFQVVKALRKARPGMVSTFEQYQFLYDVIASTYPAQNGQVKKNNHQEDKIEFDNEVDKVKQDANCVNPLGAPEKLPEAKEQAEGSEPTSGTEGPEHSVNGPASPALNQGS
# [6] = Inhibitory activity against Leukocyte antigen related Tyrosine Phosphatase (Receptor linked protein tyrosine phosphatase LAR) was determined
# [7] = target: T2, M-phase inducer phosphatase 3; assay: Inhibitory activity against cell division cycle 25 degree C (Cdc25 C) was determined
# [8] = target: T1, Tyrosine-protein phosphatase non-receptor type 1; assay: Protein-tyrosine phosphatase 1B (PTP 1B) site 2 Ligands were identified using [13C]-labeled protein and their Dissociation Constants were determined
# Sequence of Tyrosine-protein phosphatase non-receptor type 2 (P17706 whole entry, looked up): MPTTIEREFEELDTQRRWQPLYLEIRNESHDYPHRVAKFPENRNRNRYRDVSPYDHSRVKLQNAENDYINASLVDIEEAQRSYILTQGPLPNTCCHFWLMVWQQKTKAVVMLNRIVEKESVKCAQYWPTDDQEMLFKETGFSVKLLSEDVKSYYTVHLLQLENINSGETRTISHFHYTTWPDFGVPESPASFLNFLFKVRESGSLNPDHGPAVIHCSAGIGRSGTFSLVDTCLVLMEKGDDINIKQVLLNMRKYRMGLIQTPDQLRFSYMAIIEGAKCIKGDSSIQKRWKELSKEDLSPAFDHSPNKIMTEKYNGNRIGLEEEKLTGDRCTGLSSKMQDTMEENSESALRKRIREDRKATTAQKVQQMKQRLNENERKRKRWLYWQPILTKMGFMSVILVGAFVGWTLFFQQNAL
Ki [1],Ki [2],SMILES,further results
0.47 µM,–,C=CCOC(=O)N[C@@H](Cc1ccc(N(C(=O)C(=O)O)c2ccccc2C(=O)O)cc1)C(=O)NCCCCOc1cccc(O)c1C(=O)OC,Ki [3]: > 200 µM; Ki [4]: 178 µM; Ki [5]: > 200 µM; Ki [6]: 33 µM
0.23 µM,0.04 µM,CCc1cc(CC(NC(C)=O)C(=O)NCCCCOc2cc(Cl)cc(O)c2C(=O)OC)ccc1N(C(=O)C(=O)O)c1ccccc1C(=O)O (stereo not drawn),Ki [3]: > 3 µM; Ki [7]: > 3 µM; Ki [5]: > 3 µM; Ki [6]: > 3 µM
0.065 µM,–,CCc1cc(CC(NC(C)=O)C(=O)NCCCCOc2cccc(O)c2C(=O)OC)ccc1N(C(=O)C(=O)O)c1ccccc1C(=O)O (stereo not drawn),–
0.84 µM,0.56 µM,CCc1cc(CC(NC(C)=O)C(=O)NCCCCOc2ccc(-c3ccccc3)c(O)c2C(=O)OC)ccc1N(C(=O)C(=O)O)c1ccccc1C(=O)O (stereo not drawn),–
0.86 µM,1.6 µM,CCc1cc(CC(NC(C)=O)C(=O)NCCCCOc2ccccc2C(=O)OC)ccc1N(C(=O)C(=O)O)c1ccccc1C(=O)O (stereo not drawn),–

# More lines, now with the values behind:
SMILES,Ki [1],Ki [2],further results
CCc1cc(CC(NC(C)=O)C(=O)NCCCCOc2cccc(O)c2C(=O)NC)ccc1N(C(=O)C(=O)O)c1ccccc1C(=O)O (stereo not drawn),0.83 µM,0.37 µM,–
CCc1cc(CC(NC(C)=O)C(=O)NCCCCOc2ccc(Br)c(O)c2C(=O)OC)ccc1N(C(=O)C(=O)O)c1ccccc1C(=O)O (stereo not drawn),2.6 µM,0.39 µM,–
CCc1cc(CC(NC(C)=O)C(=O)NCCCCOc2cccc(O)c2C(=O)O)ccc1N(C(=O)C(=O)O)c1ccccc1C(=O)O (stereo not drawn),0.073 µM,0.042 µM,–
Cc1cc(C)c2nc(C(=O)O)ccc2c1O,–,–,Kd [8]: 15600 µM
CCc1cc(CC(NC(C)=O)C(=O)NCCCCOc2cccc(O)c2[N+](=O)[O-])ccc1N(C(=O)C(=O)O)c1ccccc1C(=O)O (stereo not drawn),0.12 µM,0.13 µM,–
NC(=O)[C@H](Cc1ccc(C(F)(F)P(=O)(O)O)cc1)NC(=O)[C@H](CC(=O)O)NC(=O)Cc1ccc(C(F)(F)P(=O)(O)O)cc1,0.024 µM,–,–
N#Cc1cc(C(=O)O)c(O)c(Br)c1N,–,–,Kd [8]: 910 µM
Nc1ccc(C(=O)O)c(O)c1 [AMINOSALICYLIC ACID],–,–,Kd [8]: 1200 µM
